# Experimental data published in patent publication US12389907B2, “Compounds with nematicidal activity to pinewood nematode Bursaphelenchus xylophilus” (KOREA ADVANCED INSTITUTE OF SCIENCE AND TECHNOLOGY, priority 2023, dated 2025).
# Tested on: pinewood nematode (Bursaphelenchus xylophilus)
# Assay: Nematode screening: mortality of pinewood nematode in 96-well plate, propidium iodide staining
# Assay type: cell-based
# Conditions: compound dissolved in polar solvent DMSO, nematode treated with the solution
# Experimental: Nematode Screening Method and Test Results
# (1) A pinewood nematode sample was prepared so that 130 to 150 nematodes were present per 40 μL.
# (2) The pinewood nematode sample was dispensed into a 96-well plate by 40 μL. Triplicates were prepared for each sample.
# (3) Each compound was dispensed into each well containing the pinewood nematode sample. The tested compounds were (±)-orthosporin and 6,8-dihydroxy-3-methylisocoumarin, and each compound was dissolved in 1% DMSO solvent at a concentration of 20 μM. The chemical formulas of the compounds are illustrated in FIG. 1.
# (4) After 120 hours, 20 μL of 50 μM propidium iodide was dispensed into each well containing the sample, and then shaking incubation was performed at RT for 15 minutes.
# (5) The mortality rate was evaluated by counting only dead pinewood nematodes stained red in the total number of nematodes using a fluorescence microscope.
row,Structure (SMILES),effect of killing the nematode
1,"Cc1cc2cc(O)cc(O)c2c(=O)o1 [Chemical Formula 2, 6,8-dihydroxy-3-methyl-1H-isochromen-1-one]",have the effect of killing the nematode
2,"CC(O)Cc1cc2cc(O)cc(O)c2c(=O)o1 (racemic) [Chemical Formula 3, 6,8-dihydroxy-3-(2-hydroxypropyl)-1H-isochromen-1-one]",have the effect of killing the nematode
